Data taken from the NIST ThermoML archive (doi:10.1021/je500792x).

Experiment: xn = mol fraction of the nth substance listed
Settings: Gas, Buoyancy - hydrostatic balance with magnetic suspension - two sinkers

C [methane] + CCC
Settings | mass density [kg/m3]
293.15 K, 1153.9 kPa, x1 = 0.2658 | 20.3554
293.15 K, 1175 kPa, x1 = 0.2658 | 20.8043
293.15 K, 1187.5 kPa, x1 = 0.2658 | 21.0718
293.15 K, 1209.4 kPa, x1 = 0.5069 | 16.361
293.15 K, 1399.6 kPa, x1 = 0.5069 | 19.2777
293.15 K, 1605.8 kPa, x1 = 0.5069 | 22.5759
298.14 K, 160.58 kPa, x1 = 0.2658 | 2.414
298.15 K, 311.48 kPa, x1 = 0.2658 | 4.7646
298.15 K, 471.27 kPa, x1 = 0.2658 | 7.3487
298.15 K, 493.82 kPa, x1 = 0.7498 | 4.6835
298.15 K, 500.2 kPa, x1 = 0.7498 | 4.742
298.15 K, 605.41 kPa, x1 = 0.2658 | 9.6013
298.15 K, 758.38 kPa, x1 = 0.2658 | 12.2732
298.15 K, 785.06 kPa, x1 = 0.7498 | 7.5358
298.15 K, 909.2 kPa, x1 = 0.2658 | 15.0282
298.15 K, 999.01 kPa, x1 = 0.7498 | 9.679
298.15 K, 1000.6 kPa, x1 = 0.7498 | 9.6924
298.15 K, 1055.1 kPa, x1 = 0.2658 | 17.8236
298.15 K, 1094 kPa, x1 = 0.7498 | 10.6384
298.15 K, 1201.2 kPa, x1 = 0.2658 | 20.7664
298.15 K, 1355.7 kPa, x1 = 0.2658 | 24.0659
298.15 K, 1372.4 kPa, x1 = 0.7498 | 13.507
298.15 K, 1686.6 kPa, x1 = 0.7498 | 16.8301
298.15 K, 1999.5 kPa, x1 = 0.7498 | 20.2389
298.15 K, 2001.4 kPa, x1 = 0.7498 | 20.2558
298.15 K, 2075.4 kPa, x1 = 0.7498 | 21.0754
298.15 K, 3006.3 kPa, x1 = 0.7498 | 31.9148
298.15 K, 3043.9 kPa, x1 = 0.7498 | 32.3714
298.15 K, 3990.5 kPa, x1 = 0.7498 | 44.5527
298.15 K, 4003.1 kPa, x1 = 0.7498 | 44.7224
298.15 K, 4119.5 kPa, x1 = 0.7498 | 46.3151
298.15 K, 4424.2 kPa, x1 = 0.7498 | 50.5647
298.15 K, 4993.9 kPa, x1 = 0.7498 | 58.9113
298.15 K, 5997.5 kPa, x1 = 0.7498 | 74.9816
298.15 K, 5999.6 kPa, x1 = 0.7498 | 75.0173
323.16 K, 434.83 kPa, x1 = 0.5069 | 4.9489
323.16 K, 609.43 kPa, x1 = 0.5069 | 7.005
323.16 K, 747.99 kPa, x1 = 0.7498 | 6.5657
323.16 K, 981.92 kPa, x1 = 0.7498 | 8.6824
323.16 K, 1028.4 kPa, x1 = 0.5069 | 12.1152
323.16 K, 1206.2 kPa, x1 = 0.5069 | 14.365
323.16 K, 1225.9 kPa, x1 = 0.7498 | 10.9233
323.16 K, 1407.1 kPa, x1 = 0.5069 | 16.9693
323.16 K, 1492.3 kPa, x1 = 0.7498 | 13.4094
323.16 K, 1603.4 kPa, x1 = 0.5069 | 19.5802
323.16 K, 1721 kPa, x1 = 0.7498 | 15.578
323.16 K, 1804.7 kPa, x1 = 0.5069 | 22.3318
323.16 K, 1913.8 kPa, x1 = 0.5069 | 23.855
323.16 K, 1988.8 kPa, x1 = 0.7498 | 18.1586
323.16 K, 3017.7 kPa, x1 = 0.7498 | 28.51
323.16 K, 4475.4 kPa, x1 = 0.7498 | 44.4692
323.16 K, 5928.8 kPa, x1 = 0.7498 | 62.0416
323.17 K, 161.42 kPa, x1 = 0.2658 | 2.2297
323.17 K, 240.14 kPa, x1 = 0.5069 | 2.7038
323.17 K, 277.8 kPa, x1 = 0.2658 | 3.8766
323.17 K, 380.81 kPa, x1 = 0.2658 | 5.3632
323.17 K, 474.08 kPa, x1 = 0.2658 | 6.7339
323.17 K, 556.87 kPa, x1 = 0.2658 | 7.9706
323.17 K, 653.58 kPa, x1 = 0.2658 | 9.4407
